Key:
Experiment in all cases: Eurofins kinase panel
Type in all cases: biochemical
Conditions in all cases: read-out: Inhibition rate (%)
Flt3(D835Y)(h) = target: T1, Flt3(D835Y)(h) (Homo sapiens, UniProt P36888, D835Y)
T1 construct: purchased Eurofins (KinaseProfiler)
T1 sequence (P36888 27-993 D835Y): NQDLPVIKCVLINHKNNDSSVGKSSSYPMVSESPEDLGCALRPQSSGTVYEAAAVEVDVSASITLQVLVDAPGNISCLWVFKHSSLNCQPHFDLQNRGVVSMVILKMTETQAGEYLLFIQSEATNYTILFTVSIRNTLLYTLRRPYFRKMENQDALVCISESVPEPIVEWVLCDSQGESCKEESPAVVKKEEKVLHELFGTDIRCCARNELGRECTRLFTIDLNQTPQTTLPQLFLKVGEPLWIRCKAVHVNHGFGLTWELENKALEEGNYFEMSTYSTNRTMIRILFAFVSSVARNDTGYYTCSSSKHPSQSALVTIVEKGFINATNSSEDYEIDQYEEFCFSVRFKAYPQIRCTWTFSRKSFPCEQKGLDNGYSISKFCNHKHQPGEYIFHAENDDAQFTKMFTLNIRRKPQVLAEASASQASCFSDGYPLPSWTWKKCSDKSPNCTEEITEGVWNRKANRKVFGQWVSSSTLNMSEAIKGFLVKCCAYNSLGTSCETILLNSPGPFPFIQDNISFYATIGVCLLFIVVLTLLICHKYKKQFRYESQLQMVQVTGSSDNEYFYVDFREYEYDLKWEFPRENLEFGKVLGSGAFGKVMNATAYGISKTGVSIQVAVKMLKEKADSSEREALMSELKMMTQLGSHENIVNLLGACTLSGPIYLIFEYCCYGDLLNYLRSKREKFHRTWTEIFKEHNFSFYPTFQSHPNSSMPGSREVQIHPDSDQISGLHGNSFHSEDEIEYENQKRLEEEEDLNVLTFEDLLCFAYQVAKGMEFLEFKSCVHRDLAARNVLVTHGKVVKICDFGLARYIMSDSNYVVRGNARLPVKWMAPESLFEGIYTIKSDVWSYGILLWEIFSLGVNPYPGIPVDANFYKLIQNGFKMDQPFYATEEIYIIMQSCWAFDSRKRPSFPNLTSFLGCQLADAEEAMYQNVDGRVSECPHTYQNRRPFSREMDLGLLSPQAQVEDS

Met(Y1248C)(h) = target: T2, Met(Y1248C)(h) (Homo sapiens, UniProt P08581, Y1230C)
T2 construct: purchased Eurofins (KinaseProfiler)

ASK1(h) = target: T3, ASK1(h) (Homo sapiens, UniProt Q99683)
T3 construct: purchased Eurofins (KinaseProfiler)
T3 sequence (Q99683 1-1374): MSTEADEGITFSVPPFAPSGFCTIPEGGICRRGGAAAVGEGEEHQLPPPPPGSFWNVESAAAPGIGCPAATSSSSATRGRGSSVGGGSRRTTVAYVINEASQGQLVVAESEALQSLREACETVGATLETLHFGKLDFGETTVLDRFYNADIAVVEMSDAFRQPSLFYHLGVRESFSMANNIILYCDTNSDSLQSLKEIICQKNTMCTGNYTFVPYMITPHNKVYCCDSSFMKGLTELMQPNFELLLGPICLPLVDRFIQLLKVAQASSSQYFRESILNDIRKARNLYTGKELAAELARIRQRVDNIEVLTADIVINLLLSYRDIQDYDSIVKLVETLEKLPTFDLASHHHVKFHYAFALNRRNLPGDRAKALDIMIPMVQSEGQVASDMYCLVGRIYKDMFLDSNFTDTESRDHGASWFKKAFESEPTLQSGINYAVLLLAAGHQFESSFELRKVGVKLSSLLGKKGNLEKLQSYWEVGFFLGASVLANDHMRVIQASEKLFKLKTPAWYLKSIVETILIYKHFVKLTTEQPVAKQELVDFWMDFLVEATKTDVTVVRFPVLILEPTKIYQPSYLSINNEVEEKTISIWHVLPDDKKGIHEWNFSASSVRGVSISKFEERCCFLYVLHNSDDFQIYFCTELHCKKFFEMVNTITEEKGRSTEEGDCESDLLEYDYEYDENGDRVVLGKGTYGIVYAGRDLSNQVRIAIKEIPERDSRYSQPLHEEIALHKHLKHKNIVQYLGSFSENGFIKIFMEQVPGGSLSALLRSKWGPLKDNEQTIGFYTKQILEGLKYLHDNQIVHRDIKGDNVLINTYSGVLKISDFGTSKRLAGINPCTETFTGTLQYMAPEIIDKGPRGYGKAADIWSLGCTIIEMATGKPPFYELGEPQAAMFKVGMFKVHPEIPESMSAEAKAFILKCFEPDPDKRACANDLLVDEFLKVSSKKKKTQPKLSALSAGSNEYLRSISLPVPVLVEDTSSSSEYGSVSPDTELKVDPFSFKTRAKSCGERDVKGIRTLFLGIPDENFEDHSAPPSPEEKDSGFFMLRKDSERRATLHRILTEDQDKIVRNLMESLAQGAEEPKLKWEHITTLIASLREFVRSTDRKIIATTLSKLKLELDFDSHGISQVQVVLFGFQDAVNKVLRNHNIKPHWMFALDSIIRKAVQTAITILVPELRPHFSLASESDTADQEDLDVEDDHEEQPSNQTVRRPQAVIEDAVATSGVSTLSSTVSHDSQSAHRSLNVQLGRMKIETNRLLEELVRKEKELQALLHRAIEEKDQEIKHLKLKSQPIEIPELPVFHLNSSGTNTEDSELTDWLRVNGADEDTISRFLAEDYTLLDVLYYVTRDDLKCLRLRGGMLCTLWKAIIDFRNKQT

T2 sequence (P08581 956-1390 Y1230C limits assumed): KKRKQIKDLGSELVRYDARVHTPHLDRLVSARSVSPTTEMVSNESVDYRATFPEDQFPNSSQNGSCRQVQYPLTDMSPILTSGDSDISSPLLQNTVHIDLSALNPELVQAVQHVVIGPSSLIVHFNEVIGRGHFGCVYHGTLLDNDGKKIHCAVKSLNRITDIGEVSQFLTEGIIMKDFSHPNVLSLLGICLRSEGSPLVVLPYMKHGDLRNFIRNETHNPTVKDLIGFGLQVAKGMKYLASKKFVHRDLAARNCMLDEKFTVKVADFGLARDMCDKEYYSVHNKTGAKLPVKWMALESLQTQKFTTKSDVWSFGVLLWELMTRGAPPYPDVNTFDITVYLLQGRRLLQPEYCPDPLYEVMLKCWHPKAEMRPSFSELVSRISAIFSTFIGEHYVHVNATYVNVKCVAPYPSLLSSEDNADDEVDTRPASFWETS

COc1cc(OC)c(Cl)c(-c2ccc3c(NC(=O)c4ccc(N5CCNC(C)(C)C5)cc4)n[nH]c3n2)c1Cl [3D185]
inhibition at 0.01 µM (Flt3(D835Y)(h); 10 nM): -1% | inhibition at 0.1 µM (Flt3(D835Y)(h); 100 nM): -6% | inhibition at 1 µM (Flt3(D835Y)(h); 1000 nM): 5% | inhibition at 0.01 µM (Met(Y1248C)(h); 10 nM): -9% | inhibition at 0.1 µM (Met(Y1248C)(h); 100 nM): -2% | inhibition at 1 µM (Met(Y1248C)(h); 1000 nM): 5% | inhibition at 0.01 µM (ASK1(h); 10 nM): -6% | inhibition at 0.1 µM (ASK1(h); 100 nM): -7% | inhibition at 1 µM (ASK1(h); 1000 nM): -2%

Source: paper PMC6704710, “Preclinical evaluation of 3D185, a novel potent inhibitor of FGFR1/2/3 and CSF-1R, in FGFR-dependent and macrophage-dominant cancer models” (Journal of Experimental & Clinical Cancer Research : CR, 2019)
